Assay results: publication PMC4057607 (Journal of immunology (Baltimore, Md. : 1950), 2013)

Target: soluble HLA-A*02:01 molecules (Homo sapiens, UniProt P04439, D140Y/D185E/D98H/E176V/E277Q/G131W/G231S/I119V/I121R/I166T/I218V/L300P/L318F/N151K/N90K/P208A/P217A/Q86G/Q94H/R138H/R169H/T345S)
Assay: Binding with soluble HLA-A*02:01 molecules

## CSCC[C@H](NC(=O)[C@@H](N)[C@@H](C)O)C(=O)N[C@@H](CC(C)C)C(=O)N[C@@H](CCC(=O)O)C(=O)N[C@@H](CC(=O)O)C(=O)N[C@@H](Cc1c[nH]cn1)C(=O)N[C@@H](CCC(=O)O)C(=O)N[C@@H](Cc1ccccc1)C(=O)N[C@H](C(=O)O)C(C)C [gB675–683]
  Kd: ~0.095 µM
